US4348401A, “N-Phenoxyalkylpiperidine derivatives” (Boehringer Mannheim GmbH, priority 1979, dated 1982)

Tested on: bronchospasm
Assay: inhibition of antigen-induced bronchospasm (Br Sp), passively sensitized guinea pigs, Konzett and Rossler method as modified by Collier
Type: in vivo, guinea pig
Conditions: 5 minutes before antigen, 3 minutes after antigen, vs control group
Description: In animals narcotized with 40 mg. sodium pentobarbital/kg. body weight, a Y cannula is introduced into the trachea and a venous cannula is introduced in the jugular vein. A cannula introduced in the carotid artery leads to a measurement chamber (Statham, P 23 Db), with which the arterial pressure is recorded via a direct-current voltage potential measuring bridge. Using a respiratory pump, rats are given an air volume, depending upon the size of the animal, of 1 to 2 ml. 64 times and guinea pigs of 7 to 15 ml. 72 times per minute. […] Upon the appearance of a bronchospasm, initiated by the intravenous administration of the antigen, in the case of the respiratory volume remaining the same, all of the supplied volume of air can no longer flow into the lungs and part of it flows off through a side arm via a valve. The method developed by the firm Basile differs from the method originally described by Konzett and Rossler in that this air volume is measured indirectly via the rate of flow with the help of a thermoelement. The strength of a bronchospasm can then be recorded as a percentage reduction of the available bronchial volume. The theoretically maximum possible bronchospasm is obtained by closing the respiration tube on the animal so that all of the air supplied flows off through the valve.
Every 30 seconds, the valve is closed for 8 seconds by a relay and the total volume is pumped into the lungs in order again to expand the bronchi and alveoli and thus to make possible a sufficient gas exchange. The percentage decrease of the available bronchial volume (X) is calculated according to the following equation: [formula] wherein a is the amplitude of the recorder in mm. at the commencement of the experiment, b is the height of the amplitude in mm. at a definite point of time and m is the maximum amplitude in mm. after closing the respiration tube on the animal.
The antigen is 2×crystallized ovalbumin. Equal amounts of a solution of the antigen in physiological sodium chloride solution and complete Freund's adjuvant are emulsified and injected intramuscularly in an amount of 2×0.15 ml. to male guinea pigs. The animals are bled and the pooled serum is stored at -20° C.
The compounds according to the present invention are administered intravenously 5 minutes before administration of the antigen.

Cc1ccccc1C(=O)NC1CCN(CCCOc2ccccc2-c2nnn[nH]2)CC1 [Example 10g, 5-{2-{3-[4-(2-methylbenzamido)-piperidino]-propoxy}-phenyl}-1H-tetrazole]
% inhibition Br Sp (dosage 0.75 mg/kg i.v.): 71%

O=C(NC1CCN(CCCOc2ccccc2C(=O)O)CC1)c1ccccc1 [Example 7, 2-[3-(4-Benzamidopiperidino)-propoxy]-benzoic acid]
% inhibition Br Sp (dosage 1.5 mg/kg i.v.): 45%

COC(=O)c1ccccc1OCCCN1CCC(NC(=O)c2ccccc2)CC1 [Example 2a, methyl 2-[3-(4-benzamidopiperidino)-propoxy]-benzoate]
% inhibition Br Sp (dosage 3.0 mg/kg i.v.): 71%

NC(=O)c1ccccc1OCCCN1CCC(NC(=O)c2ccccc2)CC1 [Example 2b, 2-[3-(4-benzamidopiperidino)-propoxy]-benzamide]
% inhibition Br Sp (dosage 0.38 mg/kg i.v.): 67%

Cn1c(=O)c2[nH]cnc2n(C)c1=O [aminophylline, reference compound]
% inhibition Br Sp (dosage 24 mg/kg i.v.): 29%

O=C(NC1CCN(CCCOc2ccccc2-c2nnn[nH]2)CC1)c1ccccc1 [Example 9, 5-{2-[3-(4-Benzamidopiperidino)-propoxy]-phenyl}-1H-tetrazole]
% inhibition Br Sp (dosage 0.1 mg/kg i.v.): 56%
